Source: PMC5073322, “Novel Natural Product-like Caged Xanthones Bearing a Carbamate Moiety Exhibit Antitumor Potency and Anti-Angiogenesis Activity In vivo” (Scientific Reports, 2016)
In brackets after ≈: the same amount, converted by molar mass. Where two headings read alike, the source gives them in different places.

How the values were obtained:
A549/cisplatin = test: MTT antiproliferative assay, cisplatin-resistant A549; format: cell-based
Experimental: (§1) The inhibition of tumour cell growth was measured by a modified tetrazolium (MTT) salt assay, as previously described[39]. Cells were cultured in a 96-well plate and treated with culture medium alone or different concentrations of the compounds. The cells were incubated for 72 h, and then, the MTT assay reagent was added. After a 4 h incubation, the formazan product was quantitated at 570 nm. The IC50 values (the concentrations that gave rise to 50% inhibition of cell viability) were calculated using GraphPad Prism 6 using a variable slope (four parameters).

MDA-MB-231 = test: MTT antiproliferative assay, MDA-MB-231
Experimental: as §1

HepG2 = test: MTT antiproliferative assay, HepG2
A549 = test: MTT antiproliferative assay, A549
Experimental: as §1

HCT116 = test: MTT antiproliferative assay, HCT116
Experimental: as §1

A549/taxol = test: MTT antiproliferative assay, Taxol-resistant A549; format: cell-based; details: 72 h, Taxol-resistant A549
Experimental: as §1

[1] = Parallel artificial membrane permeability assay (PAMPA); format: in vitro ADME
Experimental: Permeability is another important property that reflects the ability of molecules to diffuse through cell membranes. The permeability coefficients were determined using a standard parallel artificial membrane permeability assay (PAMPA) on a PAMPA Explorer instrument (Pion, Inc., MA, USA)[34].
A HPLC system with an ultraviolet (UV) detector was used to detect the solubility of the compounds. The optimal wavelength was 290 nm. Ethanol/water (85:15) was an efficient eluent at a flow rate of 0.5 mL/min. The compounds were stirred in deionized water overnight to maximize the retention of the compounds in solution. Then, the solutions were filtered and the supernatant was used as a fluid sample for HPLC detection. The permeability (Pe) of some of the compounds was tested with the help of a standard PAMPA (pION), as previously reported. PAMPA was performed on a PAMPA Explorer instrument (pION, Inc., Woburn, MA) with the PAMPA Explorer command software (Version 3.7.4.1). […] Then, 150 μL of the diluted compound solution was transferred to a UV plate, and the UV spectrum was collected and used as a reference. Then, paint the membrane with 5 μL of gastrointestinal tract (GIT) lipid. The acceptor chamber was filled with 200 μL of acceptor solution buffer, and the donor chamber was filled with 200 μL of diluted compound solution. The PAMPA sandwich was assembled and left at 25 °C for 4 h. The UV spectra (240–500 nm) from the donor and the acceptor were collected. The permeability coefficient was calculated with the PAMPA Explorer Command software (Version 3.7.4.1) based on the area under the curve (AUC) of the reference plate, the donor plate, and the acceptor plate. The permeability coefficient of the compound was tested for four times, and the data are shown as the average values. Ketoprofen (4.5×10^−6 cm/s) and propranolol (112.8×10^−6 cm/s) were used as the standards in this assay.

Water solubility by HPLC = format: physicochemical; details: for solubility: thermodynamic from solid
Text: The physicochemical characteristics of compounds directly determine their potential drug-like properties. Assessing a compound’s physicochemical properties before performing in vivo evaluations can guide further studies and minimize the time and cost associated with drug discovery. Therefore, parallel to the in vivo study, these solubilities of these compounds in water were experimentally measured using high-performance liquid chromatography (HPLC). Based on the results of full wave scanning, 290 nm was chosen as the maximum absorption wavelength for HPLC detection.
A HPLC system with an ultraviolet (UV) detector was used to detect the solubility of the compounds. The optimal wavelength was 290 nm. Ethanol/water (85:15) was an efficient eluent at a flow rate of 0.5 mL/min. The compounds were stirred in deionized water overnight to maximize the retention of the compounds in solution. Then, the solutions were filtered and the supernatant was used as a fluid sample for HPLC detection. The permeability (Pe) of some of the compounds was tested with the help of a standard PAMPA (pION), as previously reported. PAMPA was performed on a PAMPA Explorer instrument (pION, Inc., Woburn, MA) with the PAMPA Explorer command software (Version 3.7.4.1). The compounds were diluted to 10 mM with the system solution buffer (pH 7.4). Then, 150 μL of the diluted compound solution was transferred to a UV plate, and the UV spectrum was collected and used as a reference. Then, paint the membrane with 5 μL of gastrointestinal tract (GIT) lipid. The acceptor chamber was filled with 200 μL of acceptor solution buffer, and the donor chamber was filled with 200 μL of diluted compound solution. The PAMPA sandwich was assembled and left at 25 °C for 4 h. The UV spectra (240–500 nm) from the donor and the acceptor were collected. The permeability coefficient was calculated with the PAMPA Explorer Command software (Version 3.7.4.1) based on the area under the curve (AUC) of the reference plate, the donor plate, and the acceptor plate. The permeability coefficient of the compound was tested for four times, and the data are shown as the average values. Ketoprofen (4.5×10^−6 cm/s) and propranolol (112.8×10^−6 cm/s) were used as the standards in this assay.

[2] = Homo sapiens, MTT, 72 h, read-out: IC50 A549/cisplatin
[3] = Homo sapiens, MDA-MB-231, 72 h, read-out: IC50 MDA-MB-231
[4] = Homo sapiens, HepG2, 72 h, read-out: IC50 HepG2
[5] = Homo sapiens, A549, 72 h, read-out: IC50 A549
[6] = Homo sapiens, HCT-116, 72 h, read-out: IC50 HCT116
[7] = deionized water, stirred overnight, HPLC 290 nm, read-out: S, water solubility
[8] = Homo sapiens, MDA-MB-231, 72 h, read-out: IC50 MDA-MB-231, MTT, 72 h
[9] = Homo sapiens, A549, 72 h, read-out: IC50 A549, MTT, 72 h
[10] = Homo sapiens, HCT-116, 72 h, read-out: IC50 HCT116, MTT, 72 h
[11] = read-out: IC50 A549/cisplatin, MTT, 72 h
[12] = read-out: IC50 HepG2, MTT, 72 h
[13] = deionized water, stirred overnight, HPLC 290 nm

| SMILES | IC50 (A549/cisplatin; [2]) [µM] | IC50 (MDA-MB-231; [3]) [µM] | IC50 (HepG2; [4]) [µM] | IC50 (A549; [5]) [µM] | IC50 (HCT116; [6]) [µM] | IC50 (A549/taxol; MTT, read-out: IC50 A549/taxol) [µM] | solubility (Water solubility by HPLC; [7]) [µM] | other results |
| --- | --- | --- | --- | --- | --- | --- | --- | --- |
| COc1cccc2c1C(=O)c1c(O)c3c(c(O)c1C2=O)C[C@@](O)(C(=O)CO)C[C@@H]3O[C@H]1C[C@H](N)[C@H](O)[C@H](C)O1 [Doxorubicin, reference compound] | 0.19 ± 0.02 | 0.49 ± 0.05 | 0.28 ± 0.01 | 0.17 ± 0.02 | 0.4 ± 0.04 | 0.24 ± 0.02 | – | – |
| CC(C(=O)O)c1cccc(C(=O)c2ccccc2)c1 (stereo not shown) [Ketoprofen, reference compound] | – | – | – | – | – | – | – | permeability coefficient (Pe) ([1]; PAMPA standards, 25 °C, 4 h): 4.5 ×10⁻⁶ cm/s |
| CC(C)=CCC12OC(C)(C)C3CC(C=C4C(=O)c5c(OC(=O)N(C(C)C)C(C)C)cccc5OC431)C2=O (stereo not shown) [Compound 8k] | 2 ± 0.47 | 9.1 ± 0.12 | 4.76 ± 0.22 | 8.96 ± 0.9 | 4.49 ± 0.77 | 6.72 ± 0.53 | 30 (≈ 15.2 µg/mL) | – |
| CC(C)=CCC12OC(C)(C)C3CC(C=C4C(=O)c5c(OCC(=O)O)cccc5OC431)C2=O (stereo not shown) [Compound 5] | – | > 10 | > 10 | – | > 10 | – | 30 (≈ 13.2 µg/mL) | – |
| CC(C)=CCC12OC(C)(C)C3CC(C=C4C(=O)c5c(OC(=O)N6CC=CC6)cccc5OC431)C2=O (stereo not shown) [Compound 8h] | 6.7 ± 0.18 | 6.8 ± 0.7 | 1.75 ± 0.28 | 8.45 ± 0.2 | 3.15 ± 0.22 | 1.1 ± 0.16 | 20 (≈ 9.51 µg/mL) | – |
| CC(C)=CCC12OC(C)(C)C3CC(C=C4C(=O)c5c(OC(=O)N(C)C)cccc5OC431)C2=O (stereo not shown) [Compound 8a] | – | – | – | – | – | – | – | IC50 (A549/cisplatin; Homo sapiens, A549, 72 h, read-out: IC50 A549/cisplatin, MTT, 72 h): 1.1 ± 0.1 µM; IC50 (MDA-MB-231; [8]): 0.17 ± 0.04 µM; IC50 (HepG2; Homo sapiens, HepG2, 72 h, read-out: IC50 HepG2, MTT, 72 h): 1.73 ± 0.43 µM; IC50 (A549; [9]): 3.09 ± 0.14 µM; solubility (Water solubility by HPLC; water, deionized water, stirred overnight, HPLC 290 nm, read-out: S, water solubility): 60 µM (≈ 27.1 µg/mL); IC50 (HCT116; [10]): 2.32 ± 0.21 µM; IC50 (A549/taxol; A549/Taxol, read-out: IC50 A549/taxol, MTT, 72 h): 0.65 ± 0.08 µM |
| CC(C)=CCC12OC(C)(C)C3CC(C=C4C(=O)c5c(OC(=O)N6CCSC6)cccc5OC431)C2=O (stereo not shown) [Compound 8i] | 1.8 ± 0.1 | 1 ± 0.1 | 1.61 ± 0.18 | 3.38 ± 0.02 | 1.08 ± 0.02 | 0.82 ± 0.08 | 20 (≈ 9.91 µg/mL) | permeability relative to DDO-6101 and GA ([1]; PAMPA, different pH values (Fig. 5)): improved the permeability |
| CC(C)=CCC[C@]1(C)C=Cc2c(O)c3c(c(CC=C(C)C)c2O1)O[C@]12C(=C[C@@H]4C[C@H]1C(C)(C)O[C@@]2(C/C=C(/C)C(=O)O)C4=O)C3=O [GA, gambogic acid, reference compound] | 2.5 ± 0.06 | 1.5 ± 0.05 | 2.08 ± 0.07 | 2.02 ± 0.02 | 0.34 ± 0.08 | 0.29 ± 0.04 | – | solubility (Water solubility by HPLC; water): < 5 µM |
| CC(C)=CCC12OC(C)(C)C3CC(C=C4C(=O)c5c(OC(=O)N6CCN(C)CC6)cccc5OC431)C2=O (stereo not shown) [Compound 8m] | – | – | – | – | – | – | – | IC50 (A549/cisplatin; [11]): 0.38 ± 0.07 µM; IC50 (MDA-MB-231; [8]): 0.76 ± 0.09 µM; IC50 (HepG2; [12]): 1.36 ± 0.71 µM; IC50 (A549; [9]): 9.97 ± 2.46 µM; S, water solubility (Water solubility by HPLC; [13]): 640 µM; IC50 (HCT116; [10]): 8.15 ± 0.7 µM; IC50 (A549/taxol; read-out: IC50 A549/taxol, MTT): 1.1 ± 0.05 µM |
| CC(C)=CCC12OC(C)(C)C3CC(C=C4C(=O)c5c(OC(=O)N6CCN(C)CC6)cccc5OC431)C2=O (stereo not shown) [Compound 8o] | – | – | – | – | – | – | – | IC50 (A549/cisplatin; [11]): 1.14 ± 0.14 µM; IC50 (MDA-MB-231; read-out: IC50 MDA-MB-231, MTT, 72 h): 0.66 ± 0.07 µM; IC50 (HepG2; [12]): 2.8 ± 0.21 µM; IC50 (A549; read-out: IC50 A549, MTT, 72 h): 14.9 ± 3.6 µM; S, water solubility (Water solubility by HPLC; [13]): >40000 µM; IC50 (HCT116; read-out: IC50 HCT116, MTT, 72 h): 9.82 ± 0.68 µM; IC50 (A549/taxol; read-out: IC50 A549/taxol, MTT): 0.51 ± 0.05 µM |
